The values below come from paper PMC6895199, “A new antiviral scaffold for human norovirus identified with computer-aided approaches on the viral polymerase” (Scientific Reports, 2019).

For orientation: EC50 means the midpoint of the concentration-response curve.

Read-outs that look alike come from different tables or passages of the source.

In this assay the test system is HuNoV GI.1 replicon. The assay is described as follows: HuNoV GI replicon assay (HGT-NV cells, qRT-PCR). The assay is classed as cell-based, human norovirus GI.1. As for the experimental part:
Given that in this system the gene encoding for the major capsid protein is replaced by a neomycin resistance gene, no new virus particles will be produced but the non-structural proteins are expressed and the replication of the genomic RNA can be studied.
Cells and virus: MNV (virus strain MNV-1.CW1) was propagated in RAW 264.7 cells grown in DMEM (Life Technologies, Gent, Belgium) supplemented with 10% or 2% FBS, 2 mM L-glutamine, 20 mM HEPES, 0.075 g/L sodium bicarbonate, 1 mM sodium pyruvate, 100 U penicillin/mL and 100 µg/mL streptomycin at 37 °C in a humidified atmosphere of 5% CO2. The human norovirus GI.1 replicon harboring gastric tumor-1 cell line (HGT-NV) (kindly provided by Dr. Ian Goodfellow, University of Cambridge) was maintained in DMEM supplemented with 10% FBS, 2mM L-glutamine, 0.075 g/L sodium bicarbonate and 1.0 mg/ml of Geneticin (G418; Life Technologies), at 37 °C in a humidified atmosphere of 5% CO2[34].
Antiviral assay with the HGT-NV replicon: The inhibitory effect of Compounds on human norovirus replication was assessed by quantification of the levels of HuNoV GI replicon RNA and of the reference (housekeeping) gene β-actin mRNA [by quantitative reverse transcription polymerase chain reaction (qRT-PCR)]. To this end, HGT cells (2000 cells/well) were seeded in 96-well plates, in complete DMEM without the selection marker G418. Following an incubation period of 24 h, a serial dilution of rupintrivir was added to the cultures. After 72 h of incubation, cell monolayers were washed with phosphate-buffered saline (PBS) and collected for quantification of RNA load by qRT-PCR. Intracellular RNA was extracted from cells using the cell-to-cDNA lysis buffer (Ambion, Life Technologies). For detection of HuNoV GI replicon RNA, forward (5′-CCG GCT ACC TGC CCA TTC-3′), reverse (5′-CCAGATCATCCTGATCGACAAG-3′) primers and probe (5′-FAM-ACATCGCATCGAGCGAGCACGTAC-TAMRA-3′) for the neomycin gene were used. For detection of β-actin mRNA, forward (5′-GGCATCCACGAAACTACCTT-3′), reverse (5′-AGCACTGTGTTGGCGTACAG-3′) primers and probe (5′-HEX-ATCATGAAGTGTGACGTGGACATCCG-BHQ1–3′) were used. One-step qRT-PCR was performed in a 20 µL reaction mixture containing 10 µl 2X iTaq Universal SYBR® Green one step reaction mix (Bio-rad, California, USA), 5.17 µl RNAse free water, 0.5 µl of iScript reverse transcriptase (Bio-rad, California, USA), 4 µl of the template RNA and either 300 nM of HuNoV GI replicon primers and probe, 300 nM of β-actin primers and 200 nM of probe. Cycling conditions were: reverse transcription at 50 °C for 10 min, initial denaturation at 95 °C for 3 min, followed by 40 cycles of denaturation at 95 °C for 15 s, annealing and extension at 60 °C for 30 seconds (Roche Lightcycler®96, Roche Diagnostics, Belgium). To determine the relative expression levels of HuNoV GI replicon RNA, β-actin was used as a normalizer and ratios were calculated using the Pfaffl method. The Expression Ratio (HuNoV GI Replicon/β-actin) was calculated as: Expression Ratio = (E HuNoV)^ΔCT, HuNoV (CC – TC)/(Eβ-actin)^ΔCT, β-actin (CC – TC), where E HuNoV and Eβ-actin represent the amplification efficiency (E = 10^–1/slope) for the HuNoV GI replicon and β-actin qRT-PCR reactions, respectively. ΔCT, HuNoV (CC – TC) is the Ct of untreated control cells (CC) minus the Ct of cells treated with a compound concentration (TC) obtained with HuNoV GI replicon primers and probe. ΔCT, β-actin (CC – TC) is the Ct of untreated control cells (CC) minus the Ct of cells treated with a compound concentration (TC) obtained with β-actin primers and probe. Efficiency values (E HuNoV and Eβ-actin) were determined for each qRT-PCR reaction.
On the technique in general: In antiviral work, replicon cells carry a viral genome segment that copies itself.

Where [1] appears, read: HuNoV GI replicon in HGT-1 cells, 72 h, replicon RNA by qRT-PCR.
Where [2] appears, read: Norwalk virus, HGT-1, 72 h, read-out: EC50 values (column head printed 'M'), HuNoV GI replicon in HGT-1 cells, replicon RNA by qRT-PCR.

As to `Cc1ccc(C(=O)NC(=S)Nc2ccc(N3CCN(C(=O)c4cccs4)CC3)cc2)cc1` [Compound 52, 4-Methyl-N-((4-(4-(thiophene-2-carbonyl)piperazin-1-yl)phenyl)carbamothioyl)benzamide], under setting [1], the “EC50 values (column head printed 'M')” value is “low micromolar range”. The EC50 worked out at 6 µM under setting [2] and 6.1 ± 3.9 µM (read-out: EC50 values (column head printed 'M'), HuNoV GI replicon in HGT-1 cells, 72 h, replicon RNA by qRT-PCR).

As to `O=C(NC(=S)Nc1ccc(N2CCN(C(=O)c3cccs3)CC2)cc1)c1sc2ccccc2c1Cl` [Compound 48, 3-Chloro-N-((4-(4-(thiophene-2-carbonyl)piperazin-1-yl)phenyl)carbamothioyl)benzo[b]thiophene-2-carboxamide, reference compound], the “EC50 values (column head printed 'M')” value under setting [1] is on record as “do not display any significant antiviral activity”. Under setting [2], the 50% effective concentration (EC50) is greater than 100 µM.

In the case of `O=C(NC(=S)Nc1ccc(N2CCN(C(=O)c3nccs3)CC2)cc1)c1sc2ccccc2c1Cl` [Compound 56, 3-Chloro-N-((4-(4-(thiazole-2-carbonyl)piperazin-1-yl)phenyl)carbamothioyl)benzo[b]thiophene-2-carboxamide], under setting [1], the “EC50 values (column head printed 'M')” value is given as “do not display any significant antiviral activity”. Moreover, under setting [2], the EC50 was greater than 100 µM.
